Paper PMC9951879, “Synthesis of New Shogaol Analogues as NRF2 Activators and Evaluation of Their Anti-Inflammatory Activity, Modes of Action and Metabolic Stability” (Antioxidants, 2023)
Like-named read-outs stand apart in the source and are kept apart here.

Columns and labels:
GSTM2 = assay: qPCR gene expression in Hepa1c1c-7 cells: GSTM2; format: cell-based, mouse; conditions: 1 μM, 48 h, Hepa-1c1c7 cells
Protocol: (§1) Hepa1c1c-7 cells were treated with STCs (1 μM) for 48 h, and the total RNA was isolated using QIAzol®lysis reagent (Qiagen, Germany). Next, cDNA was synthesised using the ReverTra Ace® qPCR RT Master Mix Kit (Toyobo Research Reagents, Osaka, Japan). Quantitative PCR was performed using THUNDERBIRD^TM Next SYBR® qPCR Mix (Toyobo Research Reagents, Osaka, Japan) in CFX96 Touch Real-Time PCR Detection System (Bio-Rad Laboratories, San Jose, CA, USA). The genes tested and the respective primers (purchased from Integrated DNA Technologies, Coralville, IA, USA) used in the study are shown in Table 1. β-actin was used as a reference gene for the normalisation of target gene expression. The 2^−ΔΔCt method was used to measure the relative expression of target genes.

PRDX1 = assay: qPCR gene expression in Hepa1c1c-7 cells: PRDX1; format: cell-based, mouse; conditions: 1 μM, 48 h, Hepa-1c1c7 cells
Protocol: as §1

G6PDX = assay: qPCR gene expression in Hepa1c1c-7 cells: G6PDX; format: cell-based, mouse; conditions: 1 μM, 48 h, Hepa-1c1c7 cells
Protocol: as §1

[1] = test system: NAD(P)H quinone oxidoreductase 1 (NQO1); assay: Prochaska microtiter plate bioassay, NQO1 induction in Hepa-1c1c7 cells; format: cell-based, mouse
Protocol: The effect of shogaol thiophene compounds (STCs) on NRF2 activation is determined by measuring the NAD(P)H quinone oxidoreductase 1 (NQO1) inducer activity, as reported in our previous studies. The mouse hepatoma cells (Hepa-1c1c7, 1 × 10^4 per well) were incubated with STCs (10, 1, 0.1, 0.01, and 0.001 µM) for 48 h. The cells were lysed using digitonin (0.8 mg/mL and 2 mM EDTA; Acros, UK), and the protein concentration was determined using Bradford’s assay kit (Thermo Fisher Scientific, USA). The cell lysate was incubated with a reaction mixture of 0.5 M Tris-Cl buffer (Calbiochem, USA), 7.5 mM FAD (Acros, UK), 150 mM glucose-6-phosphate (Calbiochem, San Diego, CA, USA), 2 U/mL glucose-6-phosphate dehydrogenase (Calbiochem, USA), 50 mM NADP+ (Sigma Aldrich, USA), 25 mM menadione (Sigma Aldrich, USA), and 0.7 mM MTT (Sigma Aldrich, USA) at 37 °C for 5 min. The absorbance was recorded at 610 nm using a microplate reader (Spectramax M3, Molecular Devices, San Jose, CA, USA), and the values were normalised to the total protein content.

KEAP1-NRF2 interaction = biological target: T1, KEAP1-NRF2 interaction (Homo sapiens, UniProt Q14145); assay: KEAP1-Nrf2 inhibitor screening, fluorescence polarisation assay; format: binding; conditions: KEAP1 Kelch domain, read-out: IC50, NRF2-KEAP1 inhibition
T1 construct: purchased BPS Bioscience
Protocol: The KEAP1-Nrf2 inhibitor screening assay kit (BPS Bioscience, San Diego, California, USA) was used to determine the effect of STCs in inhibiting KEAP1-NRF2 interaction following the manufacturer’s protocol and our reported method. The STC solutions were diluted with the assay buffer, and 5 μL of the STC solutions were incubated at room temperature for 30 min in the peptide mixture containing 0.5 μL NRF2 peptide (1 μM) and 20 μL KEAP1 (15 ng/μL). The fluorescence polarisation (FP) was measured using a microplate reader at λex 485 nm and λem 530 nm. The following equation was used to determine the per cent KEAP1-NRF2 inhibitory effect of the STCs. Keap1−Nrf2 inhbitory activity %=1−Relative FP of STC/Relative FP of postive control×100

[2] = Vybrant MTT cytotoxicity assay in BV-2 cells together with LPSEc; format: cell-based; conditions: mouse, BV-2 microglial cells, BV-2 cells plus LPSEc 200 ng/mL, read-out: cell viability
Protocol: (§2) The safe dose of the test compounds on murine hepatoma (Hepa1c1c-7) and mouse microglial cells (BV-2) was assessed by determining their cytotoxicity using Vybrant® MTT Cell Proliferation Assay Kit (Thermo Fisher Scientific, USA) following the manufacturer’s protocol. In the case of BV-2 cells, the cytotoxicity of the test compounds was assessed together with E. coli lipopolysaccharide (LPSEc), 200 ng/mL. The cell density was 5 × 10^5 cells/well (in a 96-well plate), and they were preincubated for 24 h. The test compounds (10, 5, 2.5, 1.25, and 0.625 μM) were then added to each well (in triplicate) and incubated for another 24 h. The solution’s absorbance was measured using Spectramax (Molecular Devices, San Jose, California, USA) M3 microplate reader. The cell viability was calculated using the following formula, and the results are presented as mean ± SD. Percent cell viability %=Atreated cells−Ablank /Auntreated cells−Ablank×100%

TXNRD1 = assay: qPCR gene expression in Hepa1c1c-7 cells: TXNRD1; format: cell-based, mouse; conditions: 1 μM, 48 h, Hepa-1c1c7 cells
Protocol: as §1

HMOX1 = assay: qPCR gene expression in Hepa1c1c-7 cells: HMOX1; format: cell-based, mouse; conditions: 1 μM, 48 h, Hepa-1c1c7 cells
Protocol: as §1

GSTA4 = assay: qPCR gene expression in Hepa1c1c-7 cells: GSTA4; format: cell-based, mouse; conditions: 1 μM, 48 h, Hepa-1c1c7 cells
Protocol: as §1

GPX2 = assay: qPCR gene expression in Hepa1c1c-7 cells: GPX2; format: cell-based, mouse; conditions: 1 μM, 48 h, Hepa-1c1c7 cells
Protocol: as §1

GCLM = assay: qPCR gene expression in Hepa1c1c-7 cells: GCLM; format: cell-based, mouse; conditions: 1 μM, 48 h, Hepa-1c1c7 cells
Protocol: as §1

GSTP1 = assay: qPCR gene expression in Hepa1c1c-7 cells: GSTP1; format: cell-based, mouse; conditions: 1 μM, 48 h, Hepa-1c1c7 cells
Protocol: as §1

GCLC = assay: qPCR gene expression in Hepa1c1c-7 cells: GCLC; format: cell-based, mouse; conditions: 1 μM, 48 h, Hepa-1c1c7 cells
Protocol: as §1

NRF2 = assay: qPCR gene expression in Hepa1c1c-7 cells: NRF2; format: cell-based, mouse; conditions: 1 μM, 48 h, Hepa-1c1c7 cells
Protocol: as §1

[3] = Vybrant MTT cytotoxicity assay in Hepa-1c1c7 cells; format: cell-based; conditions: mouse, read-out: cell viability
Protocol: as §2

NQO1 = assay: qPCR gene expression in Hepa1c1c-7 cells: NQO1; format: cell-based, mouse; conditions: 1 μM, 48 h, Hepa-1c1c7 cells
Protocol: as §1

T1 sequence (Q14145 2-624 limits assumed): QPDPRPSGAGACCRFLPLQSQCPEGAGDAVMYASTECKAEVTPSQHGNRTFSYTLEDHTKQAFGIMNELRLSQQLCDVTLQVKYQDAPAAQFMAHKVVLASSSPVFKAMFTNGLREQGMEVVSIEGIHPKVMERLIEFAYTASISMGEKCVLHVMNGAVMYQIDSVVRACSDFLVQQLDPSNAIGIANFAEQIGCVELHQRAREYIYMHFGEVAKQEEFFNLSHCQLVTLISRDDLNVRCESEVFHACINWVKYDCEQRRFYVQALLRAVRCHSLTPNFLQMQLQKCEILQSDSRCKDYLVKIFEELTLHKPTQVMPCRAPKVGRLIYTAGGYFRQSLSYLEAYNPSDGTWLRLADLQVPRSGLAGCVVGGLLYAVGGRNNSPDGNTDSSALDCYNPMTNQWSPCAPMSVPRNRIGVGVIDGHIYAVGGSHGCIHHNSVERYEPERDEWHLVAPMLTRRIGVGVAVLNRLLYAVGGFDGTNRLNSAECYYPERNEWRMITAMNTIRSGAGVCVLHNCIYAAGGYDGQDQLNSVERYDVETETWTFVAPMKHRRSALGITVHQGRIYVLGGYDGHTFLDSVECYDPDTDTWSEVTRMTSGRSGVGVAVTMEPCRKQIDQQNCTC

Row | SMILES | GSTM2 gene expression foldchange (compared to control) (GSTM2) | PRDX1 gene expression foldchange (compared to control) (PRDX1) | G6PDX gene expression foldchange (compared to control) (G6PDX) | concentration toxic to the cells in the NQO1 assay ([1]; Hepa-1c1c7 cells) | IC50 (KEAP1-NRF2 interaction) | TXNRD1 gene expression foldchange (compared to control) (TXNRD1) | HMOX1 gene expression foldchange (compared to control) (HMOX1) | GSTA4 gene expression foldchange (compared to control) (GSTA4) | GPX2 gene expression foldchange (compared to control) (GPX2) | GCLM gene expression foldchange (compared to control) (GCLM) | GSTP1 gene expression foldchange (compared to control) (GSTP1) | GCLC gene expression foldchange (compared to control) (GCLC) | NRF2 gene expression foldchange (compared to control) (NRF2) | NQO1 gene expression foldchange (compared to control) (NQO1) | further results
1 | CCCCC/C=C/C(=O)CCc1ccc(O)c(OC)c1 [6-shogaol, reference compound] | 1.19 ± 0.05 | 1.37 ± 0.07 | 2.27 ± 0.03 | 10 µM | 830 ± 100 nM | 1.20 ± 0.08 | 1.34 ± 0.05 | 1.53 ± 0.02 | 1.63 ± 0.06 | 2.28 ± 0.10 | 2.12 ± 0.09 | 1.20 ± 0.05 | 1.26 ± 0.05 | 1.20 ± 0.06 | EC (2-fold NQO1 induction) ([1]; Mus musculus, Hepa-1c1c7, 48 h, Hepa-1c1c7 cells, 48 h, read-out: CD (concentration required to double the NQO1 level)): 4.12 ± 0.52 µM; viability at 24 h, 5 µM ([2]; concentrations ≥ 5 μM): < 90%; viability at 24 h ([3]; Hepa-1c1c7 cells, 5 and 10 μM): < 90%
2 | COc1cc(CCC(=O)/C=C/c2cc(-c3ccccc3)cs2)ccc1O [STC5, (E)-5-(4-Hydroxy-3-methoxyphenyl)-1-(4-phenylthiophen-2-yl)pent-1-en-3-one] | 3.19 ± 0.05 | 3.04 ± 0.09 | 3.83 ± 0.02 | – | 40 ± 1 nM | 2.52 ± 0.06 | 3.01 ± 0.10 | 2.52 ± 0.03 | 3.25 ± 0.11 | 3.91 ± 0.09 | 3.71 ± 0.09 | 2.31 ± 0.05 | 3.21 ± 0.08 | 2.94 ± 0.01 | times more potent than 6-shogaol (NRF2 activation) ([1]; versus 6-shogaol): 65 times
3 | COc1cc(CCC(=O)/C=C/c2ccc([N+](=O)[O-])s2)ccc1O [STC8, (E)-5-(4-Hydroxy-3-methoxyphenyl)-1-(5-nitrothiophen-2-yl)pent-1-en-3-one] | – | – | – | greater than 1 μM | 900 ± 50 nM | – | – | – | – | – | – | – | – | – | CD (concentration required to double the NQO1 level) ([1]; Hepa-1c1c7 cells, 48 h): did not show the CD value; viability at 24 h, 2.5 µM ([2]; concentrations ≥ 2.5 μM): < 90%; viability at 24 h ([3]; Hepa-1c1c7 cells, 2.5, 5 and 10 μM): < 90%
